Data on 70 compounds can be found in PubChem BioAssay AID179 (DTP/NCI, 2004).

pEC50, pIC50: −log10 of the molar value. The source made the active and inactive calls.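 How the source made its calls: active means compounds giving half or more protection of infected cells from virus-caused growth loss, again on retest; inactive means the rest.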

As a reminder, the pEC50 is the negative decadic logarithm of the EC50, by convention in mol/L. For orientation: pIC50 means the IC50 on a negative log10 scale, so that one unit is a factor of ten. The low end stands for a high IC50, the high end for a low IC50.

The test relates to CEM cells HIV-1 protection, formazan growth assay. The test is described as follows: NCI AIDS Antiviral Assay. As to conditions: for pIC50: measured here: growth of uninfected CEM cells. A digest of the protocol:
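CEM (human) cells, HIV-1 infected vs uninfected, 5-point dosing, formazan growth read-out. Retest threshold 50% protection.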

For `Nc1c2cc3ccc2nc2ccc(cc12)OCCOCCOCCOCCOCCOCCO3`, the pEC50 was less than 3.70 and the pIC50 was less than 3.70. In the case of `COC1CC(C)C(OC)C2=CC(=O)C=C(NC(=O)/C(C)=C/C=C\C(C)C(OC(N)=O)/C(C)=C\C(C)C1OC)C2=O` (stereo not drawn), the pEC50 is less than 5.70 and the pIC50 was 6.69. With `CCOP(=O)(CCn1cc(C)c(=O)[nH]c1=O)OCC`, the pEC50 was less than 3.06 and the pIC50 is less than 3.06. For the compound `O=[N+]([O-])c1ccc(C=Cc2ccc(C(F)(F)F)cc2)cc1.[C-]#[O+].[C-]#[O+].[C-]#[O+].[Cr]`, the result was inactive. Turning to `C/C=C/c1cc2c(c(=O)o1)C(=O)[C@@H](O)[C@H](C)O2`, the pEC50 is less than 3.70 and the pIC50 is 5.43.

Regarding `Cc1cccc(N=Nc2c(C)nn(C(=O)c3ccccc3Cl)c2C)c1`, the outcome was inactive. Consider `O=c1oc2ccccc2c(O)c1/C=N/C(=S)NCc1ccccc1`, for which the pEC50 is less than 3.70 and the pIC50 was less than 3.70. For `CN1Cc2ccccc2C2(COc3ccccc3C2=O)C1` (stereo not drawn), the result was inactive. With `CN(C)CCNC(=O)c1ccccc1Nc1c(Cl)cccc1Cl`, the pEC50 was less than 3.70 and the pIC50 is 4.40. Turning to `COc1cc(-c2nc(SC)nc3c2CCc2ccccc2-3)cc(OC)c1OC`, the pEC50 was less than 3.70 and the pIC50 is less than 3.70. Consider `NC(=O)/C(=N\NC(=O)c1cc2ccccc2cc1O)C1C(=O)N(c2ccccc2)N=C1N` (stereo not drawn), for which the pEC50 is less than 3.66 and the pIC50 was 4.86. As for `CC1=NOC(=O)C12CC2`, the pEC50 is less than 3.70 and the pIC50 was less than 3.70.

Turning to `COc1nc2cc3c(cc2n2cccc12)oc1ccccc13`, the pEC50 is 3.81 and the pIC50 was less than 3.70. In the same order, the values of `CCOC(=O)NNC(=O)NCc1ccccc1CNC(=O)NNC(=O)OCC` are less than 3.70 and less than 3.70. For the compound `Cc1c2ccccc2nc(CS(=O)(=O)CCO)[n+]1[O-]`, the pEC50 was less than 3.70 and the pIC50 was less than 3.70. Consider `CC(=O)c1sc2c(c1OC(=O)c1ccco1)c(=O)n(-c1ccccc1)c(=S)n2-c1ccccc1`, for which the pEC50 is less than 3.70 and the pIC50 is 5.01. In the same order, the values of `N#C/C(=C\c1ccccc1)c1ccc(F)cc1` are less than 3.70 and 4.27.

Consider `C/C(O)=C/c1nc2ccccc2n2nnnc12`, for which the pEC50 is less than 3.96 and the pIC50 is less than 3.96. On to `c1ccn2nnnc2c1`, for which the pEC50 was less than 2.68 and the pIC50 was less than 2.68. Regarding `FC(F)C(F)(F)C(F)(F)C(F)(F)C(F)(F)C(F)(F)COC(OCC(F)(F)C(F)(F)C(F)(F)C(F)(F)C(F)(F)C(F)F)OCC(F)(F)C(F)(F)C(F)(F)C(F)(F)C(F)(F)C(F)F`, the pEC50 is less than 3.70 and the pIC50 was less than 3.70. With `C[n+]1cn(-c2nc3ccccc3nc2[N-]S(=O)(=O)c2ccccc2)c2ccccc21`, the pEC50 was less than 3.70 and the pIC50 is less than 3.70. Consider `CSc1cnnc2ccccc12`, for which the pEC50 was less than 3.22 and the pIC50 is 3.58. For `C#CCCCCCCCCC/C=C1\C[C@H](O)COC1=O`, the pEC50 is less than 3.61 and the pIC50 is 4.33. With `CCCCCCc1nn2c(-c3ccncc3)nnc2s1`, the pEC50 is less than 4.00 and the pIC50 was 4.28. Regarding `CC(CC(=O)Nc1ccc(NC(=O)CC(C)N=NC(N)=O)cc1)N=NC(N)=O` (stereo not drawn), the pEC50 was less than 3.89 and the pIC50 was less than 3.89.

`CN(C)CC1CCCC/C1=N\OC(=O)c1ccccc1` (stereo not drawn): the outcome was inactive. With `O=C1c2ccccc2C2C1N2C(=O)C(F)(F)F` (stereo not drawn), the pEC50 is less than 3.83 and the pIC50 was 4.61. `CC(C)N(C(C)C)P1O[PH+](N(C(C)C)C(C)C)OP(N(C(C)C)C(C)C)O[PH+](N(C(C)C)C(C)C)O1.[C-]#[O+].[C-]#[O+].[C-]#[O+].[C-]#[O+].[W]` (stereo not drawn): the pEC50 was less than 3.70 and the pIC50 is less than 3.70. Regarding `CC(C)(C)c1ccc2c(c1)CNCCNCc1cc(C(C)(C)C)ccc1OCC1(CO2)COc2ccc(C(C)(C)C)cc2CNCCNCc2cc(C(C)(C)C)ccc2OC1`, the pEC50 is less than 5.82 and the pIC50 is 6.66. For the compound `Fc1c(F)c(F)c(CSc2nc3ccccc3[nH]2)c(F)c1F`, the pEC50 is less than 3.70 and the pIC50 is 3.84. The corresponding values for `COC1/C=C\OC2(C)Oc3c(C)c(O)c4c(O)c(c(/C=N\OCCCc5ccccc5)c(O)c4c3C2=O)NC(=O)/C(C)=C\C=C/C(C)C(O)C(C)C(O)C(C)C(OC(C)=O)C1C` (stereo not drawn) are less than 3.70 and 5.18. The corresponding values for `CCOC(=O)C(NC(=O)Nc1ccccc1)(Nc1cccc(Cl)c1)C(F)(F)F` (stereo not drawn) are less than 3.70 and 3.71. In the same order, the values of `COC1C(N(C)C)=C(c2ccccc2)C(=O)N2CCc3ccccc3C12` (stereo not drawn) are less than 3.70 and 3.77. In the case of `COCCNC1CCC(=O)c2[nH]c3ccccc3c21` (stereo not drawn), the pEC50 is less than 3.70 and the pIC50 was less than 3.70. Regarding `CCCCCC=C(c1cc(Cl)c(OC)c(C(=O)NC)c1)c1cc(Cl)c(OC)c(C(=O)NC)c1`, the pEC50 is less than 4.42 and the pIC50 was 4.69. As to `O=C1CN(Cc2ccccc2)CC(=O)N2C(c3ccccc3)CCCN12` (stereo not drawn), the outcome was inactive. As to `CN(C)Cc1cc(C(=O)/C=C/c2ccccc2Cl)cc(CN(C)C)c1O`, the pEC50 was less than 3.70 and the pIC50 was 5.14. Turning to `N#Cc1nc(C#N)n(S(=O)(=O)c2ccccc2)c1NS(=O)(=O)c1ccccc1`, the pEC50 was less than 3.70 and the pIC50 was less than 3.70. Consider `COC1CC(N)C(O)C(CN=[N+]=[N-])O1` (stereo not drawn), for which the result was inactive. Turning to `CC(=O)Nc1c(C(=N)C#N)ncn1CCO`, the pEC50 was less than 3.70 and the pIC50 was less than 3.70. Consider `CN(C)CCn1nc2n(c(=O)c1=O)CC(=O)N(C)c1ccc(Cl)cc1-2`, for which the pEC50 was less than 3.39 and the pIC50 is less than 3.39.

Take `CCCCc1c2c(nc3c1CCc1cc4cc5c(nc4nc1-3)-c1nc3c(c(CCCC)c1CC5)CCCC3)CCCC2`: the pEC50 is less than 6.01 and the pIC50 was less than 6.01.

In the case of `COC(=O)C1(C(=O)OC)Cc2ccc(OC)cc2C2=C1C(=O)c1ccccc1C2=O`, the pEC50 is less than 4.70 and the negative-log IC50 (pIC50) is 6.56. Take `C[C@@H](NC(=O)[C@@H]1C[C@]1(C)COC(=O)c1cc([N+](=O)[O-])cc([N+](=O)[O-])c1)c1cccc2ccccc12`: the pEC50 is less than 3.70 and the pIC50 was 3.94.

As to `C=CCCCC12CCCc3cccc(c31)NC2=S` (stereo not drawn), the pEC50 was less than 3.70 and the pIC50 was 4.85. For `CCCCCCCCCOC(=S)NC`, the result was inactive. In the case of `Cc1cc(S(=O)(=O)Nc2nc(N)n(-c3ccccn3)n2)c(S)cc1Cl`, the pEC50 is 3.94 and the pIC50 was less than 3.70.

`COC(=O)C1(O)c2ccccc2N=C2C(=O)c3ccccc3N21` (stereo not drawn): the pEC50 was less than 3.70 and the pIC50 is less than 3.70. On to `O=C(O)CC(c1ccccc1)c1ccccc1`, for which the pEC50 was less than 3.10 and the pIC50 is 3.36. For the compound `Cc1cc(=O)n2c(n1)sc1ccc3ccccc3c12`, the pEC50 was less than 3.70 and the pIC50 was less than 3.70. As to `O=S1(=O)OCCCCO1`, the pEC50 is less than 2.79 and the pIC50 was less than 2.79.

With `Nn1c(CNc2ccc(-c3nnc(Nc4ccc(Cl)cc4)n3N)cc2)nnc1Nc1ccc(Cl)cc1`, the pEC50 is less than 3.70 and the negative logarithm of the IC50 (pIC50) was 4.17.

On to `O.O.O=C(O)C(=O)O.O=C(O)C(=O)O.[Cu]`, for which the pEC50 is less than 3.70 and the pIC50 was 4.68. For `CC1=NN2C(=N)/C(=C/c3ccco3)C(=O)N=C2S1`, the pEC50 is less than 3.70 and the pIC50 is less than 3.70. For the compound `CC(=O)NS(=O)(=O)c1ccc(N=Cc2ccc3c(c2)OCO3)cc1`, the pEC50 was less than 3.70 and the pIC50 is less than 3.70.

Regarding `CCCCCN(CCCCC)CC(=O)OCC1(C)CCCC2(C)C3CCC(C(C)C)=CC3=CCC12` (stereo not drawn), the pEC50 is less than 3.70 and the pIC50 is 4.45. Consider `CC(C)(C)[Si](C)(C)OCC1OC(n2cc(I)c(=O)[nH]c2=O)C(O[Si](C)(C)C(C)(C)C)C1O[Si](C)(C)C(C)(C)C` (stereo not drawn), for which the pEC50 is less than 3.70 and the pIC50 is 4.76. Consider `N#CCCC1(CCC#N)CCCCCCCCC(CCC#N)(CCC#N)C(O)C1O` (stereo not drawn), for which the pEC50 was less than 3.70 and the pIC50 was less than 3.70. Regarding `C#CCCCCC#CC1CCCC1C1=CC(=O)c2ccccc21` (stereo not drawn), the pEC50 was less than 4.00 and the pIC50 was 5.22. As for `CN(C)c1ccc(C=C(C(=O)c2ccccc2)C(=O)c2ccccc2)cc1`, the pEC50 is less than 4.97 and the pIC50 is less than 4.97. For the compound `Cc1ccccc1NC(=O)/C(=N\NC(N)=S)C(C#N)c1ccccc1` (stereo not drawn), the pEC50 was less than 3.73 and the pIC50 was less than 3.73. Turning to `COc1c(OP2(=S)OCC(C)(C)CO2)cnn(C2CCCCC2)c1=O`, the pEC50 was less than 3.70 and the pIC50 was 4.61.

For `O=C(/C=C/c1ccco1)c1cccc(C(=O)/C=C/c2ccco2)n1`, the pEC50 is less than 3.70 and the pIC50 was 5.02. In the same order, the values of `CC(=O)N1C(=O)/C(=C\C(=O)c2ccc(Cl)cc2)c2ccccc21` are less than 4.00 and 5.83. With `O=c1ccn(C2OC(CN(O)CCC3C(O)C(CO)OC3n3ccc(=O)[nH]c3=O)C(O)C2O)c(=O)[nH]1` (stereo not drawn), the pEC50 was less than 3.70 and the pIC50 is less than 3.70. In the case of `C=CC(=O)Nc1ccccc1CC(c1c[nH]c2ccccc12)c1c[nH]c2ccccc12`, the pEC50 was less than 4.44 and the pIC50 was 4.59. The corresponding values for `CCOC(=O)c1cn2c(n1)sc1cc(OC)ccc12` are less than 4.70 and 5.77. In the case of `N.N.NCCCCCN.O=C([O-])CC(=O)[O-].O=C([O-])CC(=O)[O-].[Pt+4].[Pt+4]`, the pEC50 was less than 2.67 and the pIC50 is 5.17. The corresponding values for `CONC(CC(=O)c1ccccc1)c1ccccc1` (stereo not drawn) are less than 5.39 and less than 5.39.

For `O=C(O)C(Cc1ccc2c(c1)CCC2)(Cc1ccc2c(c1)CCC2)C(=O)O`, the pEC50 was less than 3.70 and the pIC50 is less than 3.70.
